According to patent US20240041042A1, “1-(PYRIDYL)-5-AZINYLPYRAZOLE DERIVATIVES, AND THEIR USE FOR CONTROL OF UNDESIRED PLANT GROWTH” (Bayer Aktiengesellschaft, priority 2020, published 2024):

What was measured:
Assay type in all cases: in vivo
[1] = test system: Verconica persica (VERPE); experiment: Post-emergence herbicidal action against VERPE
How it was run: (§1)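 Greenhouse plants sprayed at the one-leaf stage, 2–3 weeks after sowing, with WP or EC formulations plus 0.5% additive at 600 l/ha water. Activity rated visually after about 3 weeks versus untreated controls (100% = dead, 0% = like control), at 320 g/ha or lower.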

[2] = test system: Echinochloa crus-galli (ECHCG); experiment: Pre-emergence herbicidal action against ECHCG
How it was run: (§2)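 Pre-emergence soil-surface spray, WP/EC formulation, 0.5% additive, 600 l/ha water, rates of 320 g/ha or lower. Greenhouse, ~3 wk. Visual score, % of untreated control (100% = plants dead, 0% = like control).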

[3] = test system: Amaranthus retroflexus (AMARE); experiment: Pre-emergence herbicidal action against AMARE; conditions: visual scoring after about 3 weeks vs untreated controls
How it was run: as §2

Avena fatua (AVEFA) [4] = experiment: Post-emergence herbicidal action against AVEFA; conditions: visual rating about 3 weeks after treatment
How it was run: as §1

[5] = test system: Alopecurus myosuroides (ALOMY); experiment: Pre-emergence herbicidal action against ALOMY; conditions: scored visually after about 3 weeks, 100% = plants have died
How it was run: as §2

[6] = test system: Amaranthus retroflexus (AMARE); experiment: Post-emergence herbicidal action against AMARE
How it was run: as §1

Viola tricolor (VIOTR) [7] = experiment: Pre-emergence herbicidal action against VIOTR
How it was run: as §2

[8] = test system: Pharbitis purpurea (PHBPU); experiment: Pre-emergence herbicidal action against PHBPU; conditions: dosage 320 g/ha
How it was run: as §2

[9] = test system: Polygonum convolvulus (POLCO); experiment: Pre-emergence herbicidal action against POLCO
How it was run: as §2

[10] = test system: Matricaria inodora (MATIN); experiment: Pre-emergence herbicidal action against MATIN; conditions: dosage 320 g/ha
How it was run: as §2

Lolium rigidum (LOLRI) [11] = experiment: Post-emergence herbicidal action against LOLRI; conditions: dosage 320 g/ha
How it was run: as §1

[12] = test system: Alopecurus myosuroides (ALOMY); experiment: Post-emergence herbicidal action against ALOMY; conditions: visual rating about 3 weeks after treatment vs untreated controls (100% = plants have died, 0% = like control plants)
How it was run: as §1

[13] = test system: Echinochloa crus-galli (ECHCG); experiment: Post-emergence herbicidal action against ECHCG; conditions: dosage 320 g/ha
How it was run: as §1

Zea mays (ZEAMX) = conditions: crop plant compatibility, 80 g/ha, effect vs untreated controls
How it was run: (§3)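 Effects were read visually as % versus untreated controls (0% = no effect, 100% = death) about 3 weeks post-treatment. Application was a post-emergence spray at the one-leaf stage of WP/EC formulations with 0.5% additive at 600 l/ha. Different dosages are denoted a, b and c.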

Oryza sativa (ORYSA) = conditions: crop plant compatibility, 80 g/ha, effect in comparison to untreated controls
How it was run: as §3

Lolium rigidum (LOLRI) [14] = experiment: Pre-emergence herbicidal action against LOLRI
How it was run: as §2

Viola tricolor (VIOTR) [15] = experiment: Post-emergence herbicidal action against VIOTR; conditions: 320 g/ha
How it was run: as §1

[16] = test system: Matricaria inodora (MATIN); experiment: Post-emergence herbicidal action against MATIN; conditions: dosage 320 g/ha
Protocol: Seeds of monocotyledonous and dicotyledonous weeds and crop plants are placed in sandy loam in plastic or organic planting pots, covered with soil and cultivated in a greenhouse under controlled growth conditions. 2 to 3 weeks after sowing, the test plants are treated at the one-leaf stage. The compounds of the invention, formulated in the form of wettable powders (WP) or as emulsion concentrates (EC), are then sprayed onto the green parts of the plants as aqueous suspension or emulsion with addition of 0.5% additive at a water application rate of 600 l/ha (converted). After the test plants have been kept in the greenhouse under optimum growth conditions for about 3 weeks, the activity of the preparations is rated visually in comparison to untreated controls. For example, 100% activity=the plants have died, 0% activity=like control plants.
Tables B1 to B13 below show the effects of selected compounds of the general formula (I) according to Table 1 on various harmful plants and at an application rate corresponding to 320 g/ha or lower, which were obtained by the experimental procedure mentioned above. The appendices “a”, “b” and “c” give differentiation by dosage used with otherwise the same harmful plants tested.

[17] = test system: Verconica persica (VERPE); experiment: Pre-emergence herbicidal action against VERPE
How it was run: as §2

Setaria viridis (SETVI) [18] = experiment: Post-emergence herbicidal action against SETVI
How it was run: as §1

[19] = test system: Polygonum convolvulus (POLCO); experiment: Post-emergence herbicidal action against POLCO
How it was run: as §1

Setaria viridis (SETVI) [20] = experiment: Pre-emergence herbicidal action against SETVI
How it was run: as §2

Avena fatua (AVEFA) [21] = experiment: Pre-emergence herbicidal action against AVEFA; conditions: visual scoring after about 3 weeks vs untreated controls
How it was run: as §2

[22] = test system: Pharbitis purpurea (PHBPU); experiment: Post-emergence herbicidal action against PHBPU; conditions: dosage 320 g/ha
How it was run: as §1

[23] = 80 g/ha, visual rating about 3 weeks after treatment vs untreated controls (100% = plants have died, 0% = like control plants)
[24] = 320 g/ha, visual rating about 3 weeks after treatment

Structure (SMILES) | Post-emergence action against VERPE in % ([1]; 320 g/ha, VERPE) [%] | Pre-emergence action against ECHCG in % ([2]; dosage 80 g/ha) [%] | Pre-emergence action against ECHCG in % ([2]; dosage 320 g/ha) [%] | Pre-emergence action against AMARE in % ([3]; 80 g/ha) [%] | Pre-emergence action against AMARE in % ([3]; 320 g/ha) [%] | Post-emergence action against AVEFA in % (Avena fatua (AVEFA) [4]; 320 g/ha) [%] | Pre-emergence action against ALOMY ([5]; 80 g/ha) [%] | Pre-emergence action against ALOMY ([5]; 320 g/ha) [%] | Post-emergence action against AMARE in % [6, 23] [%] | Post-emergence action against AMARE in % [6, 24] [%] | Pre-emergence action against VIOTR in % (Viola tricolor (VIOTR) [7]; 320 g/ha, Viola tricolor) [%] | Pre-emergence action against PHBPU in % [8] [%] | Pre-emergence action against POLCO in % ([9]; dosage 80 g/ha) [%] | Pre-emergence action against POLCO in % ([9]; dosage 320 g/ha) [%] | Pre-emergence action against MATIN in % [10] [%] | Post-emergence action against LOLRI in % (Lolium rigidum (LOLRI) [11]) [%] | Post-emergence action against ALOMY in % ([12]; 320 g/ha) [%] | Post-emergence action against ECHCG in % [13] [%] | Post-emergence action against ORYSA in % (Oryza sativa (ORYSA)) [%] | Pre-emergence action against LOLRI in % (Lolium rigidum (LOLRI) [14]; dosage 320 g/ha) [%] | also measured
C[C@@H](Oc1nn(-c2ccccn2)c(-c2ccc(F)nc2)c1Cl)C(=O)NCC(=O)O [Example I-338] | 90 | 90 | 100 | 100 | 100 | 90 | 100 | 100 | 80 | 80 | 100 | 80 | 100 | 100 | 80 | 90 | 90 | 80 | 0 | 100 | Pre-emergence action against VIOTR in % (Viola tricolor (VIOTR) [7]; dosage 80 g/ha): 100%; Post-emergence action against ZEAMX in % (Zea mays (ZEAMX)): 0%; Pre-emergence action against LOLRI in % (Lolium rigidum (LOLRI) [14]; dosage 80 g/ha): 100%; Post-emergence action against VIOTR in % (Viola tricolor (VIOTR) [15]): 80%; Post-emergence action against MATIN in % [16]: 90%; Pre-emergence action against VERPE in % ([17]; dosage 320 g/ha): 100%; Post-emergence action against SETVI in % (Setaria viridis (SETVI) [18]; dosage 80 g/ha): 90%; Post-emergence action against SETVI in % (Setaria viridis (SETVI) [18]; dosage 320 g/ha): 90%; Post-emergence action against POLCO in % ([19]; dosage 80 g/ha): 80%; Post-emergence action against POLCO in % ([19]; dosage 320 g/ha): 80%; Pre-emergence action against SETVI in % (Setaria viridis (SETVI) [20]; dosage 80 g/ha): 100%; Pre-emergence action against SETVI in % (Setaria viridis (SETVI) [20]; dosage 320 g/ha): 100%; Pre-emergence action against AVEFA in % (Avena fatua (AVEFA) [21]; 80 g/ha): 90%; Pre-emergence action against AVEFA in % (Avena fatua (AVEFA) [21]; 320 g/ha): 90%
COC(=O)[C@H](C)NC(=O)COc1nn(-c2ccccn2)c(-c2ccc(F)nc2)c1Cl [Example I-87] | 90 | 100 | 100 | 90 | 100 | 90 | 90 | 100 | 80 | 80 | 80 | 90 | 80 | 90 | 90 | 80 | 90 | 80 | 0 | 100 | Post-emergence action against VERPE in % ([1]; dosage 80 g/ha): 80%; Post-emergence action against AVEFA in % (Avena fatua (AVEFA) [4]; 80 g/ha): 80%; Post-emergence action against PHBPU in % [22]: 90%; Post-emergence action against ALOMY in % ([12]; 80 g/ha): 80%; Post-emergence action against MATIN in % [16]: 80%; Pre-emergence action against VERPE in % ([17]; dosage 80 g/ha): 80%; Pre-emergence action against VERPE in % ([17]; dosage 320 g/ha): 90%; Post-emergence action against SETVI in % (Setaria viridis (SETVI) [18]; dosage 80 g/ha): 80%; Post-emergence action against SETVI in % (Setaria viridis (SETVI) [18]; dosage 320 g/ha): 80%; Post-emergence action against POLCO in % ([19]; dosage 80 g/ha): 80%; Post-emergence action against POLCO in % ([19]; dosage 320 g/ha): 80%; Pre-emergence action against SETVI in % (Setaria viridis (SETVI) [20]; dosage 80 g/ha): 90%; Pre-emergence action against SETVI in % (Setaria viridis (SETVI) [20]; dosage 320 g/ha): 100%; Pre-emergence action against AVEFA in % (Avena fatua (AVEFA) [21]; 80 g/ha): 80%; Pre-emergence action against AVEFA in % (Avena fatua (AVEFA) [21]; 320 g/ha): 90%
